# Reference: US6313375A, “Maize aquaporins and uses thereof” (Pioneer Hi-Bred International, Inc., priority 1999, dated 2001)
# B1: AtRD28 aquaporin: plasma membrane AtRD28 aquaporin (Daniels et al., 1994), injected into oocytes as cRNA (protein, UniProt P30302 1-285, looked up)
# Aquaporin PIP2-3: MAKDVEGPDGFQTRDYEDPPPTPFFDAEELTKWSLYRAVIAEFVATLLFLYVTVLTVIGYKIQSDTKAGGVDCGGVGILGIAWAFGGMIFILVYCTAGISGGHINPAVTFGLFLARKVSLIRAVLYMVAQCLGAICGVGFVKAFQSSHYVNYGGGANFLADGYNTGTGLAAEIIGTFVLVYTVFSATDPKRNARDSHVPVLAPLPIGFAVFMVHLATIPITGTGINPARSFGAAVIFNKSKPWDDHWIFWVGPFIGATIAAFYHQFVLRASGSKSLGSFRSAANV
# How the values were obtained:
# maize aquaporins = experiment: Inhibition of water transport through maize aquaporins in the Xenopus oocyte swelling assay; format: cell-based
# Method: (§1) The biological activity of aquaporins is usually determined with Xenopus oocyte swelling assays (Maurel et al, 1993). MIP cRNA is injected into oocytes and after a 3-day incubation the oocytes are shifted to a hypotonic medium. If water channel proteins are present in the plasma membrane, the oocytes swell and burst much faster than the control oocytes. In these conditions oocytes injected with the plasma membrane AtRD28 aquaporin (Daniels et al., 1994) or maize aquaporin cRNAs rapidly increase their volume, indicating the presence of a facilitated water-transport pathway. The osmotic water permeability coefficient (Pf) of the oocyte membrane increases 8-fold over the control. Mercurial compounds were characteristic inhibitors of many water-channel proteins. Water transport through maize aquaporins are inhibited 50% by 1 mM mercuric chloride and this inhibition is reversed by the reducing agent -mercaptoethanol.
# Xenopus oocyte = Xenopus oocyte swelling assay (oocytes injected with aquaporin cRNA, shifted to hypotonic medium); format: cell-based; conditions: 3-day incubation, versus control oocytes
# Method: as §1
molecule,measurement,setting,value
OCCS [-mercaptoethanol],reversal of the mercuric chloride inhibition of water transport through maize aquaporins,maize aquaporins; reducing agent added after inhibition by 1 mM mercuric chloride,reversed
[Cl][Hg][Cl] [mercuric chloride],inhibition of water transport through maize aquaporins,maize aquaporins; 1 mM mercuric chloride,50%
B1,increase of the osmotic water permeability coefficient (Pf) of the oocyte membrane over the control,Xenopus oocyte,8 fold
